Data published in patent publication US20250171430A1, “PYRAZOLYL COMPOUNDS AS KV7 CHANNEL ACTIVATORS” (Biohaven Therapeutics Ltd., priority 2022, published 2025).

molecular target: T1, Kv7.2/7.3 (Homo sapiens, UniProt O43525+O43526); assay: Kv7.2/7.3 Activation Assay (Thallium Flux Assay); assay type: cell-based; conditions: hKV7.2/7.3 cell line; test compound at single concentration of 10 μM; fluorescence at 90 sec normalized to positive control (retigabine, 30 μM)
T1 construct: Kv7.2 tetracycline-induced, Kv7.3 constitutive
Summary of the method: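 Single-point activity at 10 μM (0.1% DMSO, HEPES-buffered saline, pH 7.4) was scored from fluorescence at 90 s relative to 30 μM retigabine. Categories were none <0.15, moderate 0.15-0.7 and high >0.7. Thallium influx after stimulus addition was followed with FluxOR II Green dye in hKv7.2/7.3 cells, Kv7.2 expressed under overnight tetracycline (10 ng/mL) induction.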

Row | Kv7.2/7.3 Activity | SMILES
1 | ++ (“++” High Activity ≥ 0.7) | Cn1nc(NC(=O)CC2CC(F)(F)C2)c(C2CCC2)c1-c1ccc(F)c(F)c1 [Compound 217, N-(4-cyclobutyl-5-(3,4-difluorophenyl)-1-methyl-1H-pyrazol-3-yl)-2-(3,3-difluorocyclobutyl)acetamide]
2 | ++ (“++” High Activity ≥ 0.7) | Cn1nc(NC(=O)c2ccccc2)c(C2CCC2)c1-c1ccc(F)cc1 [Compound 197, N-(4-cyclobutyl-5-(4-fluorophenyl)-1-methyl-1H-pyrazol-3-yl)benzamide]
3 | ++ (“++” High Activity ≥ 0.7) | Cn1nc(NC(=O)[C@H]2C[C@@H](C)C2)c(C2CCC2)c1-c1ccc(OC(F)(F)F)cc1 [Compound 183, (1s,3s)-N-(4-cyclobutyl-1-methyl-5-(4-(trifluoromethoxy)phenyl)-1H-pyrazol-3-yl)-3-methylcyclobutane-1-carboxamide]
4 | ++ (“++” High Activity ≥ 0.7) | C[C@@H](C(=O)Nc1nn(C)c(-c2cc(F)cc(F)c2)c1C1CCC1)C1CC(F)(F)C1 [Compound 267, (R)-N-(4-cyclobutyl-5-(3,5-difluorophenyl)-1-methyl-1H-pyrazol-3-yl)-2-(3,3-difluorocyclobutyl)propanamide]
5 | − (“−” No Activity < 0.15) | Cn1nc(NC(=O)C2COC2)c(C2CCC2)c1-c1ccc(F)c(F)c1 [Compound 278, N-(4-cyclobutyl-5-(3,4-difluorophenyl)-1-methyl-1H-pyrazol-3-yl)oxetane-3-carboxamide]
6 | + (“+” Moderate Activity 0.15-0.7) | Cn1nc(NC(=O)NCC2CC(F)(F)C2)c(C2CCC2)c1-c1ccc(F)cc1 [Compound 242, 1-(4-cyclobutyl-5-(4-fluorophenyl)-1-methyl-1H-pyrazol-3-yl)-3-((3,3-difluorocyclobutyl)methyl)urea]

More lines, now with the values behind:

Row | SMILES | Kv7.2/7.3 Activity
7 | CC(C)c1c(NC(=O)C[C@@H]2CC(F)(F)C2(F)F)nn(C)c1-c1ccc(OC(F)(F)F)cc1 [Compound 24, (R)-N-(4-isopropyl-1-methyl-5-(4-(trifluoromethoxy)phenyl)-1H-pyrazol-3-yl)-2-(2,2,3,3-tetrafluorocyclobutyl)acetamide] | ++ (“++” High Activity ≥ 0.7)
8 | Cn1nc(NC(=O)C23CC(C(F)(F)F)(C2)C3)c(C2CCC2)c1-c1ccc(F)cc1 [Compound 179, N-(4-cyclobutyl-5-(4-fluorophenyl)-1-methyl-1H-pyrazol-3-yl)-3-(trifluoromethyl)bicyclo[1.1.1]pentane-1-carboxamide] | ++ (“++” High Activity ≥ 0.7)
9 | Cn1nc(NC(=O)CC2(C(F)(F)F)CC2)c(C2CCC2)c1C1(C(F)(F)F)CCC1 [Compound 89, N-(4-cyclobutyl-1-methyl-5-(1-(trifluoromethyl)cyclobutyl)-1H-pyrazol-3-yl)-2-(1-(trifluoromethyl)cyclopropyl)acetamide] | ++ (“++” High Activity ≥ 0.7)
10 | CCn1nc(NC(=O)CC(C)(C)C)c(C2CC2)c1C [Compound 7, N-(4-cyclopropyl-1-ethyl-5-methyl-1H-pyrazol-3-yl)-3,3-dimethylbutanamide] | + (“+” Moderate Activity 0.15-0.7)
11 | Cn1nc(NC(=O)C(C)(O)c2ccccc2)c(C2CCC2)c1-c1ccc(OC(F)(F)F)cc1 (stereo not shown) [Compound 181, N-(4-cyclobutyl-1-methyl-5-(4-(trifluoromethoxy)phenyl)-1H-pyrazol-3-yl)-2-hydroxy-2-phenylpropanamide] | − (“−” No Activity < 0.15)
12 | Cn1nc(NC(=O)[C@@H]2CC2(F)F)c(C2CC2)c1-c1ccc(F)cc1 [Compound 163, (S)-N-(4-cyclopropyl-5-(4-fluorophenyl)-1-methyl-1H-pyrazol-3-yl)-2,2-difluorocyclopropane-1-carboxamide] | + (“+” Moderate Activity 0.15-0.7)
13 | Cn1nc(NC(=O)C2(C(F)(F)F)CC2)c(C2CCC2)c1-c1ccccc1F [Compound 170, N-(4-cyclobutyl-5-(2-fluorophenyl)-1-methyl-1H-pyrazol-3-yl)-1-(trifluoromethyl)cyclopropane-1-carboxamide] | + (“+” Moderate Activity 0.15-0.7)
